Source: PubChem BioAssay AID540340 (Sanford-Burnham Center for Chemical Genomics, 2011)
pIC50: −log10 of the molar value.

The compounds below were run against C-C chemokine receptor type 6 (Homo sapiens) (UniProt P51684) (assay: inhibition of CXCL13-driven CXCR5 beta-arrestin recruitment – cell-based, luminescence, CHO-K1 PathHunter, selectivity assay for CCR6 antagonist project, SAR follow-up (AID 540340)). Conditions: CCR6 beta-arrestin antagonism, AID540334.
C-C chemokine receptor type 6 (Homo sapiens), sequence (P51684 whole entry, looked up): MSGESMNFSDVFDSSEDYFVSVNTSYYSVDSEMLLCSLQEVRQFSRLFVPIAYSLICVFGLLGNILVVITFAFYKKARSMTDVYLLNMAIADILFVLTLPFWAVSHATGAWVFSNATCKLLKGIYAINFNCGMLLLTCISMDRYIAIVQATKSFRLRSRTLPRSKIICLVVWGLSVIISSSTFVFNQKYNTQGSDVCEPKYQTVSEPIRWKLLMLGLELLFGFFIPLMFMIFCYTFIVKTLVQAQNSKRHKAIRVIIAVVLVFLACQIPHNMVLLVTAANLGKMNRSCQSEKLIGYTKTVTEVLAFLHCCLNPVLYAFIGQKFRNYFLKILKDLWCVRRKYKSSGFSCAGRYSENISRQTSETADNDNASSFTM
`Cc1cccc2c1N(CCCOc1ccc(C(C)(C)C)cc1)C(=O)C2=O` was tested, and the pIC50 was < 4.18.
`C/C=C(\C)C(=O)OC1[C@H](OC(C)=O)C2(CO)C(CC1(C)C)C1=CCC3C4(C)CCC(O[C@@H]5O[C@H](C(=O)O)[C@@H](O[C@@H]6O[C@H](CO)[C@@H](O)[C@H](O)[C@H]6O)[C@H](O)[C@H]5O[C@H]5O[C@H](CO)[C@@H](O)[C@H](O)[C@H]5O)[C@](C)(CO)C4CCC3(C)[C@]1(C)C[C@H]2O` (stereo partly specified) gave a pIC50 of 5.11.
`CCCCCCCCCCCCC/C=C/[C@@H](O)[C@@H](N)CO` showed a pIC50 of 4.68.
In the case of `CN1CCc2nc(SCc3ccc(Cl)cc3)c(C#N)c(-c3cccs3)c2C1`, the pIC50 was < 4.18.
`O=C1C2C3C=CC(CO)(O3)C2C(=O)N1c1ccccc1-c1ccccc1` (stereo unspecified) was tested, and the pIC50 was < 4.18.
`Cn1c(O)c(C2=NNC(c3ccc(Cl)cc3)C2)c(=O)n(C)c1=O` (stereo unspecified) was tested, and the pIC50 was 5.23.
